Laboratory results published in patent publication EP4667467A1, “PROTAC DEGRADERS OF MLLT1 AND/OR MLLT3” (Dark Blue Therapeutics Ltd, priority 2024, dated 2025).

Biological target: T1, MLLT1 (Homo sapiens, UniProt Q03111)
T1 construct: endogenous in cells; host or cells: MV4-11 (ATCC CRL-9591)
T1 sequence (Q03111 1-559): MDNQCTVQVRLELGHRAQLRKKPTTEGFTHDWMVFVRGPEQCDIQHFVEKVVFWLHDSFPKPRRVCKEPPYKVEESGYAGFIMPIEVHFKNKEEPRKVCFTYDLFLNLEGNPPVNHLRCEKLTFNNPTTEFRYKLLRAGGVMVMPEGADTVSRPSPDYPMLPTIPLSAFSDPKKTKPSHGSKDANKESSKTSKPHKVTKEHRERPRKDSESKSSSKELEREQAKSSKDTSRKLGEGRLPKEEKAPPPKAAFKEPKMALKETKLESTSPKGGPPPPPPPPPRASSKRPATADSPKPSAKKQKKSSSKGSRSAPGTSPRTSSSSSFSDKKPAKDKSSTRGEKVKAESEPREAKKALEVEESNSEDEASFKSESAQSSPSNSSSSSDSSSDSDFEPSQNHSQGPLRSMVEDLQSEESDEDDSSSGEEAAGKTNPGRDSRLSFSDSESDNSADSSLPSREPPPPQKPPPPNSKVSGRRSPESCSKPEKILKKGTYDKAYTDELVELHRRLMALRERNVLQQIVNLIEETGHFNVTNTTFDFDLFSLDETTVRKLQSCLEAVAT
Experiment: MLLT1 Degradation Assay (JESS automated chemiluminescent detection, MV4-11 cells)
Format: cell-based
Settings: 24h, with respect to DMSO control; for MLLT1 % Degradation @ 0.01 µM: 0.01 µM (10 nM) test compound; for MLLT1 % Degradation @ 0.1 µM: 0.1 µM (100 nM) test compound; for MLLT 1 % Degradation @ 1 µM: 1 µM (1000 nM) test compound
In short: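 MV4-11 cells were treated for 24 h at 37 °C, 5% CO2 with compound at 1000, 100 and 10 nM (0.1% DMSO). MLLT1 was quantified by automated capillary chemiluminescent immunodetection (JESS). Band peak areas were expressed as % degradation relative to DMSO control.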

Row | Compound | MLLT1 % Degradation @ 0.01 µM | MLLT1 % Degradation @ 0.1 µM | MLLT 1 % Degradation @ 1 µM
1 | CCN1CCC[C@@H]1c1cc2cnc(NC(=O)c3ccc(CCCCC#Cc4cccc5c4CN(C4CCC(=O)NC4=O)C5=O)nc3)cc2[nH]1 (stereo partly drawn) [Example 74, 6-(6-(2-(2,6-dioxopiperidin-3-yl)-1-oxoisoindolin-4-yl)hex-5-yn-1-yl)-N-(2-((R)-1-ethylpyrrolidin-2-yl)-1H-pyrrolo [3,2-c]pyridin-6-yl) nicotinamide] | B (Category B: 50% ≤ B < 75% degradation) | B (Category B: 50% ≤ B < 75% degradation) | B (Category B: 50% ≤ B < 75% degradation)
2 | CN1CCC[C@@H]1c1cc2cnc(NC(=O)c3ccc(N4CCC(C5CCN(c6cccc7c6CN(C6CCC(=O)NC6=O)C7=O)CC5)CC4)nc3)cc2[nH]1 (stereo partly drawn) [Example 75, 6-(1'-(2-(2,6-dioxopiperidin-3-yl)-1-oxoisoindolin-4-yl)-[4,4'-bipiperidin]-1-yl)-N-(2-((R)-1-methylpyrrolidin-2-yl)-1H-pyrrolo[3,2-c]pyridin-6-yl)nicotinamide] | A (Category A: A ≥ 75% degradation) | A (Category A: A ≥ 75% degradation) | A (Category A: A ≥ 75% degradation)
